Data taken from US12447156B2, “Treating progressive familial intrahepatic cholestasis (PFIC) with IBAT inhibitors” (ALBIREO AB, priority 2020, dated 2025).

Tests used:
[1] = test system: children with PFIC; test: PEDFIC 1: treatment responders in analysis of pretreatment serum bile acid parameters; format: in vivo, human
Description: This analysis included children with PFIC aged 0.5-18 years with elevated sBAs and history of significant pruritus who were treated with odevixibat 40 μg/kg/day (n=23) or 120 μg/kg/day (n=19) in […] 1. Pretreatment sBA composition was analyzed using liquid chromatography-tandem mass spectrometry, quantifying serum concentrations of total BAs and primary (cholate, chenodeoxycholate) and secondary (deoxycholate, lithocholate) BAs. sBA concentrations are presented below including and excluding the contribution from ursodeoxycholate (UDCA). Pretreatment serum concentrations of 7α-hydroxy-4-cholesten-3-one (C4) were also quantified. Pretreatment parameters were analysed in treatment responders (Rs; i.e., patients with sBAs≤70 μmol/L or reduced ≥70% and/or a ≥1-point drop in observer-reported pruritus score from baseline to end of treatment) vs nonresponders (NRs).

[2] = test system: children with PFIC; test: Pooled analysis of PEDFIC 1 and PEDFIC 2 (up to 48 weeks): efficacy, sleep, responders vs nonresponders; format: in vivo, human
From the text: This example describes key outcomes with odevixibat in children with PFIC1 (familial intrahepatic cholestasis 1 [FIC1] deficiency) or PFIC2 ((bile salt export pump [BSEP] deficiency) based on pooled analysis of data from the phase 3 PEDFIC 1 (P1; NCT03566238) and PEDFIC 2 (P2; NCT03659916) studies. This pooled analysis covers up to 48 weeks of odevixibat treatment from P1 and through the planned P2 interim data cut. The following outcomes are described: change in serum bile acids (sBAs), change in pruritus score (measured using the PRUCISION scale; range: 0-4), evaluation of growth and sleep parameters, and safety monitoring. Mean changes in autotaxin (linked to cholestatic pruritus intensity) and plasma 7α-hydroxy-4-cholesten-3-one (p-C4; marker of bile acid synthesis) levels were also summarized.
Patient sleep was evaluated based on caregiver report using the PRUCISION scale and via the clinician- or caregiver-reported Global Impression of Change (CGIC or CaGIC, respectively) sleep scales. Treatment response was defined as an sBA response (sBAs<65 or <102 μmol/L for patients with PFIC1 and PFIC2, respectively) or a pruritus response (a ≥1-point drop from baseline in pruritus score). Mean decreases in caregiver-reported percentage of days with scratching associated with bleeding, needing help falling asleep, and needing soothing were greater among Rs vs NRs (Table 10). At week 48, clinicians and caregivers reported that ≥88% of Rs had moderately or very much better sleep since starting odevixibat (Table 10).
Using pooled data from these studies, changes in parameters of cholestasis, pruritus, and hepatic laboratory markers in patients who responded to odevixibat treatment (Rs) vs treatment nonresponders (NRs). Two responder definitions were examined: 1) sBA response (i.e., sBAs<65 or <102 μmol/L for PFIC1 and PFIC2, respectively) and 2) sBA response or pruritus response (i.e., a ≥1-point drop from baseline in PRUCISION score).

[3] = patients with liver enzyme data at baseline
[4] = patients with liver enzyme data at week 4
[5] = patients with liver enzyme data at week 24
[6] = patients with liver enzyme data at week 48
[7] = pooled P1+P2, all odevixibat-treated patients
[8] = pooled P1+P2, baseline to weeks 37-48
[9] = sBA or pruritus response No, week 24, n 21
[10] = sBA or pruritus response No, weeks 1-4, n 28
[11] = sBA or pruritus response No, weeks 21-24, n 22
[12] = sBA or pruritus response No, weeks 45-48, n 2
[13] = sBA or pruritus response Yes, weeks 1-4, n 47
[14] = sBA or pruritus response Yes, weeks 21-24, n 34
[15] = sBA or pruritus response Yes, weeks 45-48, n 18
[16] = week 4, sBA or Pruritus Response No
[17] = week 4, sBA or Pruritus Response Yes
[18] = week 24, sBA or Pruritus Response No
[19] = week 24, sBA or Pruritus Response Yes
[20] = week 48, sBA or Pruritus Response No
[21] = week 48, sBA or Pruritus Response Yes

`CCCCC1(CCCC)CN(c2ccccc2)c2cc(SC)c(OCC(=O)N[C@@H](C(=O)N[C@@H](CC)C(=O)O)c3ccc(O)cc3)cc2S(=O)(=O)N1` [Odevixibat, 1,1-dioxo-3,3-dibutyl-5-phenyl-7-methylthio-8-(N-{(R)-α-[N-((S)-1-carboxypropyl)carbamoyl]-4-hydroxybenzyl}carbamoylmethoxy)-2,3,4,5-tetrahydro-1,2,5-benzothiadiazepine] was tested, and the “proportion of treatment responders (sBAs ≤70 μmol/L or reduced ≥70% and/or ≥1-point drop in pruritus score)” value ([1]; PEDFIC 1, 40 μg/kg/day) was 16/23, the “proportion of treatment responders (sBAs ≤70 μmol/L or reduced ≥70% and/or ≥1-point drop in pruritus score)” value ([1]; PEDFIC 1, dose groups combined, 24/42) was 57% and the “sBA or pruritus responders, n (responder rate [n/(n + m)] * 100)” value (“sBA or pruritus responders, n” for short) [2, 3] was 48 (63) n (%). For the same compound, the “sBA responders, n (responder rate [n/(n + m)] * 100)” value (“sBA responders, n” below) [2, 3] was 24 (39) n (%), the “sBA or pruritus responders, n” value [2, 4] was 43 (61) n (%) and the “sBA responders, n” value [2, 4] was 23 (39) n (%). For the same compound, the “sBA or pruritus responders, n” value [2, 5] was 31 (62) n (%), the “sBA responders, n” value [2, 5] was 19 (40) n (%) and the “sBA or pruritus responders, n” value [2, 6] was 18 (75) n (%). The “sBA responders, n” value [2, 6] was 15 (63) n (%), the “mean change from baseline to week 48 in alanine aminotransferase (ALT)” value [2, 7] was −82 U/L and the “mean change from baseline to week 48 in total bilirubin” value [2, 7] was -18 µmol/L. The “mean change in height Z score” value ([2]; pooled P1+P2, baseline to week 48) was 0.5, the “mean change in observer-reported percentage of days needing help falling asleep” value [2, 8] was −52% and the “mean change in observer-reported percentage of days needing soothing” value [2, 8] was −51%. The “mean change in observer-reported percentage of days seeing blood due to scratching” value [2, 8] was −25%, the “mean change in observer-reported percentage of days sleeping with caregiver” value [2, 8] was −40% and the “patients who met sBA response criteria” value ([2]; pooled P1+P2, during the analysis period, regardless of genotype) was no less than 50%. For the same compound, the “mean change from baseline in sBAs” value ([2]; pooled P1+P2, end of the analysis period (up to 48 weeks), n=24) was -213 µmol/L, the “mean change in pruritus score” value ([2]; pooled P1+P2, end of the analysis period (up to 48 weeks), n=32) was −1.4 and the “mean change in sBAs” value ([2]; pooled P1+P2, four weeks after starting odevixibat, n=68, baseline 250) was -88 µmol/L. The “mean change in pruritus score” value ([2]; pooled P1+P2, over the first 4-week period, n=75, baseline 2.9) was −0.7, the “mean positive pruritus assessments (PPAs)” value ([2]; pooled P1+P2, patients with PFIC1) was 48% and the “mean positive pruritus assessments (PPAs)” value ([2]; pooled P1+P2, patients with PFIC2 (including BSEP subtypes 1 and 2)) was “above 60%”. The “mean height Z score” value ([2]; pooled P1+P2, week 48, n=20, baseline −1.9 (n=75)) was −0.8, the “mean weight Z score” value ([2]; pooled P1+P2, week 48, n=21, baseline −1.1 (n=75)) was −0.0 and the rate of sBA or pruritus responders ([2]; pooled P1+P2, weeks 0-24) was 57%. For the same compound, the rate of sBA responders ([2]; pooled P1+P2, weeks 0-24) was 31%, the rate of sBA or pruritus responders ([2]; pooled P1+P2, weeks 25-36) was 60% and the rate of sBA responders ([2]; pooled P1+P2, weeks 25-36) was 48%. For the same compound, the rate of sBA or pruritus responders ([2]; pooled P1+P2, weeks 37-48) was 65%, the rate of sBA responders ([2]; pooled P1+P2, weeks 37-48) was 59% and the “CGIC sleep, moderately or very much better” value (shortened to “CGIC sleep”) ([2]; sBA or pruritus response No, week 4, n 26) was 30.8%. For the same compound, the “CaGIC sleep, moderately or very much better” value (“CaGIC sleep” for short) ([2]; sBA or pruritus response No, week 4, n 28) was 25.0%, the “CGIC sleep” value [2, 9] was 33.3% and the “CaGIC sleep” value [2, 9] was 23.8%. For the same compound, the “CaGIC sleep” value ([2]; sBA or pruritus response No, week 48, n 3) was 33.3%, the “CGIC sleep” value ([2]; sBA or pruritus response No, week 48, n 4) was 25.0% and the “% Days needing help falling asleep, mean change from baseline” value [2, 10] was −10.4%. The “% Days needing soothing, mean change from baseline” value [2, 10] was −6.0%, the “% Days with scratching associated with bleeding, mean change from baseline” value [2, 10] was −6.5% and the “% days sleeping with caregiver, mean change from baseline” value [2, 10] was −3.1%. The “Number of awakenings, mean change from baseline” value [2, 10] was 1.3, the “% Days needing help falling asleep, mean change from baseline” value [2, 11] was −4.9% and the “% Days needing soothing, mean change from baseline” value [2, 11] was 7.8%. For the same compound, the “% Days with scratching associated with bleeding, mean change from baseline” value [2, 11] was 3.2%, the “% days sleeping with caregiver, mean change from baseline” value [2, 11] was 3.1% and the “Number of awakenings, mean change from baseline” value [2, 11] was 1.5. The “% Days needing help falling asleep, mean change from baseline” value [2, 12] was −1.8%, the “% Days needing soothing, mean change from baseline” value [2, 12] was 4.2% and the “% Days with scratching associated with bleeding, mean change from baseline” value [2, 12] was 12.5%. The “% days sleeping with caregiver, mean change from baseline” value [2, 12] was 0.0%, the “Number of awakenings, mean change from baseline” value [2, 12] was −4.3 and the “CaGIC sleep” value ([2]; sBA or pruritus response Yes, week 4, n 39) was 48.7%. The “CGIC sleep” value ([2]; sBA or pruritus response Yes, week 4, n 42) was 57.1%, the “CaGIC sleep” value ([2]; sBA or pruritus response Yes, week 24, n 27) was 70.4% and the “CGIC sleep” value ([2]; sBA or pruritus response Yes, week 24, n 32) was 59.4%. The “CaGIC sleep” value ([2]; sBA or pruritus response Yes, week 48, n 15) was 93.3%, the “CGIC sleep” value ([2]; sBA or pruritus response Yes, week 48, n 18) was 88.9% and the “% Days needing help falling asleep, mean change from baseline” value [2, 13] was −23.1%. For the same compound, the “% Days needing soothing, mean change from baseline” value [2, 13] was −22.5%, the “% Days with scratching associated with bleeding, mean change from baseline” value [2, 13] was −16.8% and the “% days sleeping with caregiver, mean change from baseline” value [2, 13] was −23.1%. For the same compound, the “Number of awakenings, mean change from baseline” value [2, 13] was “-−3.1”, the “% Days needing help falling asleep, mean change from baseline” value [2, 14] was −56.1% and the “% Days needing soothing, mean change from baseline” value [2, 14] was −58.8%. For the same compound, the “% Days with scratching associated with bleeding, mean change from baseline” value [2, 14] was −30.9%, the “% days sleeping with caregiver, mean change from baseline” value [2, 14] was −48.5% and the “Number of awakenings, mean change from baseline” value [2, 14] was “-−1.9”. The “% Days needing help falling asleep, mean change from baseline” value [2, 15] was −73.0%, the “% Days needing soothing, mean change from baseline” value [2, 15] was −74.6% and the “% Days with scratching associated with bleeding, mean change from baseline” value [2, 15] was −41.5%. For the same compound, the “% days sleeping with caregiver, mean change from baseline” value [2, 15] was −69.1%, the “Number of awakenings, mean change from baseline” value [2, 15] was −11.0 and the “ALT, change from baseline, Mean (SE)” value ([2]; week 4, sBA Response No) was 21 (16) U/L. For the same compound, the “Total bilirubin, change from baseline, Mean (SE)” value (“Total bilirubin, change … (SE)” for short) ([2]; week 4, sBA Response No) was −10 (9) μmol/L, the “ALT, change from baseline, Mean (SE)” value ([2]; week 4, sBA Response Yes) was −28 (37) U/L and the “Total bilirubin, change … (SE)” value ([2]; week 4, sBA Response Yes) was −8 (4) μmol/L. The “ALT, change from baseline, Mean (SE)” value [2, 16] was 9 (4) U/L, the “Total bilirubin, change … (SE)” value [2, 16] was −14 (11) μmol/L and the “ALT, change from baseline, Mean (SE)” value [2, 17] was −2 (24) U/L. The “Total bilirubin, change … (SE)” value [2, 17] was −6 (4) μmol/L, the “ALT, change from baseline, Mean (SE)” value ([2]; week 24, sBA Response No) was −10 (11) U/L and the “Total bilirubin, change … (SE)” value ([2]; week 24, sBA Response No) was −19 (10) μmol/L. For the same compound, the “ALT, change from baseline, Mean (SE)” value ([2]; week 24, sBA Response Yes) was −67 (42) U/L, the “Total bilirubin, change … (SE)” value ([2]; week 24, sBA Response Yes) was −23 (8) μmol/L and the “ALT, change from baseline, Mean (SE)” value [2, 18] was 5 (8) U/L. The “Total bilirubin, change … (SE)” value [2, 18] was −23 (13) μmol/L, the “ALT, change from baseline, Mean (SE)” value [2, 19] was −56 (27) U/L and the “Total bilirubin, change … (SE)” value [2, 19] was −19 (7) μmol/L. The “ALT, change from baseline, Mean (SE)” value ([2]; week 48, sBA Response No) was −32 (22) U/L, the “Total bilirubin, change … (SE)” value ([2]; week 48, sBA Response No) was −6 (14) μmol/L and the “ALT, change from baseline, Mean (SE)” value ([2]; week 48, sBA Response Yes) was −112 (57) U/L. For the same compound, the “Total bilirubin, change … (SE)” value ([2]; week 48, sBA Response Yes) was −25 (11) μmol/L, the “ALT, change from baseline, Mean (SE)” value [2, 20] was −5 (15) U/L and the “Total bilirubin, change … (SE)” value [2, 20] was 1 (20) μmol/L. The “ALT, change from baseline, Mean (SE)” value [2, 21] was −108 (48) U/L, the “Total bilirubin, change … (SE)” value [2, 21] was −25 (9) μmol/L and the “responders with moderately or very much better sleep since starting odevixibat (clinician and caregiver reported)” value ([2]; week 48, patients with sBA response or pruritus response) was no less than 88%.
